The values below come from PMC4685510, “A Cell Biologist’s Field Guide to Aurora Kinase Inhibitors” (Frontiers in Oncology, 2015).

Assay in all cases: biochemical
Common to all, as to assay type: biochemical

In assay [1] the target is 363 human kinases (including Aurora A/B/C) (Homo sapiens, UniProt P06213). The following applies: IR; for remaining activity at 0.1 µM: 100 nM; for remaining activity at 0.1 µM / remaining activity at 0.5 µM: read-out: % Enzyme Activity (relative to DMSO controls).
Chain of 363 human kinases (including Aurora A/B/C) (Homo sapiens, UniProt P06213) (P06213 28-1382): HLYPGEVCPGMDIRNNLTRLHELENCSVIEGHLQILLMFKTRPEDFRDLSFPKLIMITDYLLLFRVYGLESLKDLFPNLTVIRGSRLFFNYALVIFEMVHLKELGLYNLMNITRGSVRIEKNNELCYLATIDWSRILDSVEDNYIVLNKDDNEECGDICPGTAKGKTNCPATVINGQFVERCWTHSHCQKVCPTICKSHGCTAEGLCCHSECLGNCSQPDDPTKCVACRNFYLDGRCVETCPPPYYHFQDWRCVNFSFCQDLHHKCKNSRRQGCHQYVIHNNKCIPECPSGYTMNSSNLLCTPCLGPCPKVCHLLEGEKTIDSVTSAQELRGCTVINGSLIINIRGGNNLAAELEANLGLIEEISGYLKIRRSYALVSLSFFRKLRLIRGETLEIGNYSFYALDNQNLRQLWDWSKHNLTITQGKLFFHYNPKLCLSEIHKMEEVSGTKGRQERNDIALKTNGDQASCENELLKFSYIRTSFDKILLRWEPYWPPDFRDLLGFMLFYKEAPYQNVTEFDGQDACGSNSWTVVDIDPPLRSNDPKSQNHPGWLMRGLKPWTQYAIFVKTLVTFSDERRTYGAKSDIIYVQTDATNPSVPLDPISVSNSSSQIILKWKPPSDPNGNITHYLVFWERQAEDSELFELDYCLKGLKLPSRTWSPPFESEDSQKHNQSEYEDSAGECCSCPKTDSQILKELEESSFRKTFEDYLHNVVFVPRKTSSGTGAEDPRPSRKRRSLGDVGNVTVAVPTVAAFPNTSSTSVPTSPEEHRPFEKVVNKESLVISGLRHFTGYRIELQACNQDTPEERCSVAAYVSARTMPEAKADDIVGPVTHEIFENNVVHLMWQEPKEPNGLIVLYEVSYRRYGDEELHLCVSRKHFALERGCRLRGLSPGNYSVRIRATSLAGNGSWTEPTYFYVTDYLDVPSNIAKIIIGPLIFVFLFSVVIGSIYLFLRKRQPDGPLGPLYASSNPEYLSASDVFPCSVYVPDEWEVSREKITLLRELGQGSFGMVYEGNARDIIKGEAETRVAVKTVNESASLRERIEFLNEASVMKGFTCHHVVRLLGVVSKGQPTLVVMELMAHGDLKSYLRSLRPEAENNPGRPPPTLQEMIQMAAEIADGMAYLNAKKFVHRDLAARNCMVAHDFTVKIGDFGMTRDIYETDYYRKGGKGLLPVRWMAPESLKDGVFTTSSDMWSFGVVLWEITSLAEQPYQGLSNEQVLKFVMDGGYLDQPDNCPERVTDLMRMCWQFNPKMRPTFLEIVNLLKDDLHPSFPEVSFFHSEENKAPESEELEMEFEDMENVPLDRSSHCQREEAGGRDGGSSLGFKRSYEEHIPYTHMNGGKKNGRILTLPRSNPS
Text: (§1) However, the Aurora A/B selectivity ratios derived from our in vitro and in vivo data can be compared to prioritize inhibitors.
Assay [2] addresses 363 human kinases (including Aurora A/B/C) (Homo sapiens, UniProt P06239). The following applies: LCK; for remaining activity at 0.1 µM: 100 nM; for remaining activity at 0.1 µM / remaining activity at 0.5 µM: read-out: % Enzyme Activity (relative to DMSO controls).
Text: as §1
Assay [3] concerns the target 363 human kinases (including Aurora A/B/C) (Homo sapiens, UniProt P07948). The note with it: LYN; for remaining activity at 0.1 µM: 100 nM; for remaining activity at 0.1 µM / remaining activity at 0.5 µM: read-out: % Enzyme Activity (relative to DMSO controls).
Text: as §1
For assay [4], the target named is T1, 363 human kinases (including Aurora A/B/C) (Homo sapiens, UniProt P42681).
T1 sequence (P42681 1-527): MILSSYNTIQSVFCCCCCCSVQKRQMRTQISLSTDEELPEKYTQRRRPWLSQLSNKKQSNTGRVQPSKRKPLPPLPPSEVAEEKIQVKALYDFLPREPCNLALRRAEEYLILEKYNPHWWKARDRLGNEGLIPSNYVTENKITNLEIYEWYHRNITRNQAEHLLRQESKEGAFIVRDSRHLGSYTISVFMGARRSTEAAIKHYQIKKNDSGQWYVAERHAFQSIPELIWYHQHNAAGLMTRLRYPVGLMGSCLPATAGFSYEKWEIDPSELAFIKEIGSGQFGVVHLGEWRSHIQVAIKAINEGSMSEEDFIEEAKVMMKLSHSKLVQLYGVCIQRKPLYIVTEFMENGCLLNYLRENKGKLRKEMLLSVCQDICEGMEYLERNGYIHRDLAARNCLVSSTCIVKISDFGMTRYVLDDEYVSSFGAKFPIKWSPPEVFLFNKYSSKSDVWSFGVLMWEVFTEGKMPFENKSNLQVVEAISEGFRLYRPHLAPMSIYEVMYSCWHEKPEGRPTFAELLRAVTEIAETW
The note with it: TXK; for remaining activity at 0.1 µM: 100 nM; for remaining activity at 0.1 µM / remaining activity at 0.5 µM: read-out: % Enzyme Activity (relative to DMSO controls).
Text: as §1

Assay [5] deals with 363 human kinases (including Aurora A/B/C) (Homo sapiens, UniProt P51451). The note with it: BLK, [ATP] 10 µM; for remaining activity at 0.1 µM: 100 nM; for remaining activity at 0.1 µM / remaining activity at 0.5 µM: read-out: % Enzyme Activity (relative to DMSO controls).
Text: as §1
Assay [6] has as its target 363 human kinases (including Aurora A/B/C) (Homo sapiens, UniProt P53667). The note with it: LIMK1; for remaining activity at 0.1 µM: 100 nM; for remaining activity at 0.1 µM / remaining activity at 0.5 µM: read-out: % Enzyme Activity (relative to DMSO controls).
Text: as §1
Assay [7] deals with 363 human kinases (including Aurora A/B/C) (Homo sapiens, UniProt Q16644). The following applies: MAPKAPK3; for remaining activity at 0.1 µM: 100 nM; for remaining activity at 0.1 µM / remaining activity at 0.5 µM: read-out: % Enzyme Activity (relative to DMSO controls).
Chain of 363 human kinases (including Aurora A/B/C) (Homo sapiens, UniProt Q16644) (Q16644 whole entry): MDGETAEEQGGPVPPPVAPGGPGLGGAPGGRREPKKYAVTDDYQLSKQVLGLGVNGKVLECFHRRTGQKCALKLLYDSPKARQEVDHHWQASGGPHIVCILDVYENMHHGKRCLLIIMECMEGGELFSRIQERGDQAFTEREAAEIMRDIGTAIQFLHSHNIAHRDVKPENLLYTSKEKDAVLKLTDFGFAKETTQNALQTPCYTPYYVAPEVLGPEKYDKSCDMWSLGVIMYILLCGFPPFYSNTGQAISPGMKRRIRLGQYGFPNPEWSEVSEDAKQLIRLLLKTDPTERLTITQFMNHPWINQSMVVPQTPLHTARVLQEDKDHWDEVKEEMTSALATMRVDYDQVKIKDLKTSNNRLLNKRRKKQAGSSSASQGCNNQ
Text: as §1
Assay [8] deals with T2, 363 human kinases (including Aurora A/B/C) (Homo sapiens, UniProt Q8IWQ3).
T2 sequence (Q8IWQ3 1-736): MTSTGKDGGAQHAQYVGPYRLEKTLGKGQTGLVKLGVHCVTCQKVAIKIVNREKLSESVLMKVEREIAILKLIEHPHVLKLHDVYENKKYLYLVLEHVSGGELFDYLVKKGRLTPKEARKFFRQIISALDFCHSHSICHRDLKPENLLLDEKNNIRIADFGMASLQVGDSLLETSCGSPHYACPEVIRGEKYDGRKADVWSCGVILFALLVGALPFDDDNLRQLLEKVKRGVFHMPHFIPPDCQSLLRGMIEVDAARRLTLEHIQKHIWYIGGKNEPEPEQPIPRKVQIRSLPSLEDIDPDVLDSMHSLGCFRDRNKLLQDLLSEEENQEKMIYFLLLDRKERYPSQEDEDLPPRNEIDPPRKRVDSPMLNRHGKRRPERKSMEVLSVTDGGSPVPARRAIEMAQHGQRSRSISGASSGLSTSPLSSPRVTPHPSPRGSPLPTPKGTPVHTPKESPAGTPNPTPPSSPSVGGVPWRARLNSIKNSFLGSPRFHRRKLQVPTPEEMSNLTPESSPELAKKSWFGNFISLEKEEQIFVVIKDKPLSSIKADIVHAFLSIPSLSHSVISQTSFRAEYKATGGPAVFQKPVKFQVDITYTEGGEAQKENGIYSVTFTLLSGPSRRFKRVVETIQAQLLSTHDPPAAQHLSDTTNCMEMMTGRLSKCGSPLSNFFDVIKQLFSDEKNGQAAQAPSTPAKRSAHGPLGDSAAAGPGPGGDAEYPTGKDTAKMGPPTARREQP
The note with it: BRSK2, [ATP] 50 µM; for remaining activity at 0.1 µM: 100 nM; for remaining activity at 0.1 µM / remaining activity at 0.5 µM: read-out: % Enzyme Activity (relative to DMSO controls).
Text: as §1

Assay [9] deals with 363 human kinases (including Aurora A/B/C) (Homo sapiens, UniProt Q8NEV4). The following applies: MYO3A; for remaining activity at 0.1 µM: 100 nM; for remaining activity at 0.1 µM / remaining activity at 0.5 µM: read-out: % Enzyme Activity (relative to DMSO controls).
Chain of 363 human kinases (including Aurora A/B/C) (Homo sapiens, UniProt Q8NEV4) (Q8NEV4 whole entry): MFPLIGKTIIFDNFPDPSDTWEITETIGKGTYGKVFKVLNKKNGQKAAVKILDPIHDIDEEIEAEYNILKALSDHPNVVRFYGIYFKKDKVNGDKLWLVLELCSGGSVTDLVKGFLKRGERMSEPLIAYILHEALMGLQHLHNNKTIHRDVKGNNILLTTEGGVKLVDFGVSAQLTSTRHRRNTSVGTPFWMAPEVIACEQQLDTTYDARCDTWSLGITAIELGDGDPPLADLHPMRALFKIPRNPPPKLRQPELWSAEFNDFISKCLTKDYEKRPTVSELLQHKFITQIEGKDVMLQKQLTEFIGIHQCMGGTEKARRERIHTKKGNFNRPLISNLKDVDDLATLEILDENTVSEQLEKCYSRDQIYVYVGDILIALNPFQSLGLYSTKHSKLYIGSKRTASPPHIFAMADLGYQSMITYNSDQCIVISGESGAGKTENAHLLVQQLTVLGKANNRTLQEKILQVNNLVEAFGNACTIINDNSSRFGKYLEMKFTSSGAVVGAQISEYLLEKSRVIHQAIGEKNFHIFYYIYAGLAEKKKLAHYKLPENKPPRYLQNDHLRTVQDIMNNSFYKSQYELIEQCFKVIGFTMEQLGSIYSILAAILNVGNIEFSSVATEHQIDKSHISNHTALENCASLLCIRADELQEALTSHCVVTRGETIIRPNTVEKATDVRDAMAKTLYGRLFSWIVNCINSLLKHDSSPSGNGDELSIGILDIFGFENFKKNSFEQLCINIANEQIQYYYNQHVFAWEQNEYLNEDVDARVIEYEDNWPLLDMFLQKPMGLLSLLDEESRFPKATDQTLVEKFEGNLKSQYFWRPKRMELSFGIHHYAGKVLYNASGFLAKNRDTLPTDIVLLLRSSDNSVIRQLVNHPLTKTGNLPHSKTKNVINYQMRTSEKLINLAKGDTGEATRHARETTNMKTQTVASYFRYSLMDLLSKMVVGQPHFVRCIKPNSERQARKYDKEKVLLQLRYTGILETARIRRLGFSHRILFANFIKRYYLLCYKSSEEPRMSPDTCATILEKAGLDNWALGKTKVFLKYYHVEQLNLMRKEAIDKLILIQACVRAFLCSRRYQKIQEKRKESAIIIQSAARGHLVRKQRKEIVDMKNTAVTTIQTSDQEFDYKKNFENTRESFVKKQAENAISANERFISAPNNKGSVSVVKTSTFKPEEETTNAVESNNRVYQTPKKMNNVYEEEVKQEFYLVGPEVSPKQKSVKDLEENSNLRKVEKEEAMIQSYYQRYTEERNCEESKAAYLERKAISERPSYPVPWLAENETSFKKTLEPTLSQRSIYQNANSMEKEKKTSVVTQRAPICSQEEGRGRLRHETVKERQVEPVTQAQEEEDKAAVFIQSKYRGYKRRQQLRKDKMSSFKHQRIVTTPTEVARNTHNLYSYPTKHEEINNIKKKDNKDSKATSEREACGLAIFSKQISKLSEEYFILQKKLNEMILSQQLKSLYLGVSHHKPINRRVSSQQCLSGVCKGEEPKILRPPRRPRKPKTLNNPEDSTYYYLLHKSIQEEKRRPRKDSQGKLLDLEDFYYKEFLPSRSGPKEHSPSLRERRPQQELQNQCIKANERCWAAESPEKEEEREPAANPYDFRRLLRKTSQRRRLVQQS
Text: as §1
In assay [10] the target is 363 human kinases (including Aurora A/B/C) (Homo sapiens, UniProt Q92918). The note with it: HPK1/MAP4K1; for remaining activity at 0.1 µM: 100 nM; for remaining activity at 0.1 µM / remaining activity at 0.5 µM: read-out: % Enzyme Activity (relative to DMSO controls).
Text: as §1
Assay [11] addresses T3, 363 human kinases (including Aurora A/B/C) (Homo sapiens, UniProt Q96PF2).
T3 sequence (Q96PF2 1-358): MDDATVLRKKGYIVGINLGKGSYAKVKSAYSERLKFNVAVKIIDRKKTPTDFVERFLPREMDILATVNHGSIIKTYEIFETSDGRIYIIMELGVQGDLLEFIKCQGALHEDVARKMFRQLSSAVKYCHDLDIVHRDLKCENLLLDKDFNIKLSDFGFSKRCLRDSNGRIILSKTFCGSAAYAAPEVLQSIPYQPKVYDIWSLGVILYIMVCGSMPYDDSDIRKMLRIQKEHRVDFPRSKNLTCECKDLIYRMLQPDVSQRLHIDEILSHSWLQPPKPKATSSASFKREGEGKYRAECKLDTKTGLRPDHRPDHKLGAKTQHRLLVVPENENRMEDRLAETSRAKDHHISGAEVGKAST
The following applies: TSSK2; for remaining activity at 0.1 µM: 100 nM; for remaining activity at 0.1 µM / remaining activity at 0.5 µM: read-out: % Enzyme Activity (relative to DMSO controls).
Text: as §1

Assay [12] deals with 363 human kinases (including Aurora A/B/C) (Homo sapiens, UniProt Q96RR4). The note with it: CAMKK2, [ATP] 30 µM; for remaining activity at 0.1 µM: 100 nM; for remaining activity at 0.1 µM / remaining activity at 0.5 µM: read-out: % Enzyme Activity (relative to DMSO controls).
Chain of 363 human kinases (including Aurora A/B/C) (Homo sapiens, UniProt Q96RR4) (Q96RR4 whole entry): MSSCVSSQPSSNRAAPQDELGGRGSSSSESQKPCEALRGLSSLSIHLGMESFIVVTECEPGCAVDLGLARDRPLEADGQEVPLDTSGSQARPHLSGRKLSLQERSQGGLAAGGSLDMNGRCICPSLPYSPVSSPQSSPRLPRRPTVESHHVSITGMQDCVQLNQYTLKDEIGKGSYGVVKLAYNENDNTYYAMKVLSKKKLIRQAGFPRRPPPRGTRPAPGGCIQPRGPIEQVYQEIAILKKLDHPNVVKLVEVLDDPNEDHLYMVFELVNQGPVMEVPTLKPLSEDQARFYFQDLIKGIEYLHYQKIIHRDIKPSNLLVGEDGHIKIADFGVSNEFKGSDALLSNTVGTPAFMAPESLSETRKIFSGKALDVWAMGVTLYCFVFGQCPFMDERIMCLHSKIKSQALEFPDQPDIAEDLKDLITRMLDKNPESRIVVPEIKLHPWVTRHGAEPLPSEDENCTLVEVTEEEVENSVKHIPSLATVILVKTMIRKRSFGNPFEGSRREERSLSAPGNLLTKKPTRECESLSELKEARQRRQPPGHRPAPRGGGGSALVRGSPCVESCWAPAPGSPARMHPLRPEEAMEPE
Text: as §1

Molecules are shown by their SMILES.

Chain of 363 human kinases (including Aurora A/B/C) (Homo sapiens, UniProt P07948) (P07948 whole entry): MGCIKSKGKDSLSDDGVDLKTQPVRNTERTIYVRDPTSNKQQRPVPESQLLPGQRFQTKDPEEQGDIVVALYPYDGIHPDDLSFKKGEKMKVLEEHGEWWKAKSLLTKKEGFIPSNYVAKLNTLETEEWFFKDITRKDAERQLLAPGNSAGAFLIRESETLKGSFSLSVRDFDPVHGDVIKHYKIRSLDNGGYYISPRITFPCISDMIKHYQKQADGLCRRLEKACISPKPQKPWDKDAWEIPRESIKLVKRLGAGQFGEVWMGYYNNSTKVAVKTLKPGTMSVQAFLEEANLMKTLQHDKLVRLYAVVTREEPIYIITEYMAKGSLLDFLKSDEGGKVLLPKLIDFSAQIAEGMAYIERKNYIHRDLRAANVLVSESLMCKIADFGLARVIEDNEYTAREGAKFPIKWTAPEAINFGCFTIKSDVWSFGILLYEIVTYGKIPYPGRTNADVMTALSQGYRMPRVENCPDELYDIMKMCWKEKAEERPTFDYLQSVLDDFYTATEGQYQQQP
Chain of 363 human kinases (including Aurora A/B/C) (Homo sapiens, UniProt P06239) (P06239 whole entry): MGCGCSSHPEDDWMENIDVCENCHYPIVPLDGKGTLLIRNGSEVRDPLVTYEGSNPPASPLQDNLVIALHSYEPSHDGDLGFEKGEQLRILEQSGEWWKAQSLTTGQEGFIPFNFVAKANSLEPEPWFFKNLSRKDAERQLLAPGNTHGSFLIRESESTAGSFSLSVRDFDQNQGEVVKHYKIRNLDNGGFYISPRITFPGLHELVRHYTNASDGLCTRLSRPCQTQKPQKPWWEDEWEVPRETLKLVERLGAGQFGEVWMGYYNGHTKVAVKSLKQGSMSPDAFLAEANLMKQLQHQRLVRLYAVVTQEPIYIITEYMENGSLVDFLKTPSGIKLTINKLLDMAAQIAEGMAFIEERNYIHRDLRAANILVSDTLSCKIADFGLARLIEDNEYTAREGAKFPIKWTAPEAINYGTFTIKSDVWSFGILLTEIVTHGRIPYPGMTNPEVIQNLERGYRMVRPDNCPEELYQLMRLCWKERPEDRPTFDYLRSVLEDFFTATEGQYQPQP

Regarding `CCn1cc(-c2ccnc3[nH]c(-c4cccc(CN(C)C)c4)cc23)c(-c2ccc(NC(=O)N(C)C)cc2)n1` [GSK1070916], the remaining activity at 0.1 µM in assay [1] turned out to be 97.8%; in assay [2] it was 72.8%; in assay [3], 79.2%; in assay [4], 86.3%; in assay [5] it was 85%; in assay [6], 96.8%. The remaining activity at 0.1 µM was determined as 93.8% in [7]; 88.4% in [8]; 92.9% in assay [9]; 109% in [10]; 99.9% in [11]; 76.9% in assay [12].

In the case of `O=C(O)[C@]1(Cc2cccc(Nc3nccs3)n2)CC[C@@H](Oc2cccc(Cl)c2F)CC1` [MK-5108], the remaining activity at 0.1 µM in [1] came out at 98.3%; in [2] it was 62.3%; in assay [3], 76.9%; in assay [4], 35.6%; in assay [5], 54.8%; in assay [6], 96.9%. Further, the remaining activity at 0.1 µM in assay [7] came to 99.7%; in [8] it was 92.7%; in assay [9], 90.8%; in assay [10], 105%; in [11], 103%; in [12] it was 111%. Moreover, the remaining activity at 0.5 µM in assay [1] (500 nM) came out at 80.5%; in [2] (500 nM), 16.6%; in assay [3] (500 nM) it was 45.6%; in [4] (500 nM), 10.5%; in [5] (500 nM) it was 17.1%; in assay [6] (500 nM) it was 69%. In addition, the remaining activity at 0.5 µM in assay [7] (500 nM) stood at 84.9%; in [8] (500 nM), 78.7%; in assay [9] (500 nM), 131%; in assay [10] (500 nM), 82.1%; in assay [11] (500 nM), 91.5%; in assay [12] (500 nM), 87.7%.

In the case of `O=C(c1cccc(Cl)c1F)N1CCN(Cc2cccc(Nc3nccs3)n2)CC1` [MK-8745], the “% Enzyme Activity (relative to DMSO controls)” value in assay [1] (500 nM) was 89.30%; in [2] (500 nM) it was 50.49%; in [3] (500 nM) it was 64.18%; in assay [4] (500 nM) it was 80.24%; in [5] (500 nM) it was 72.45%; in [6] (500 nM), 99.25%. Also, the “% Enzyme Activity (relative to DMSO controls)” value in assay [7] (500 nM) is listed as 87.18%; in assay [8] (500 nM), 107.67%; in [9] (500 nM), 66.28%; in [10] (500 nM), 81.94%; in assay [11] (500 nM) it was 93.76%; in assay [12] (500 nM) it was 199.08%. Also, the remaining activity at 0.5 µM is 91.1% in assay [1] (500 nM); 53% in assay [2] (500 nM); 65.1% in [3] (500 nM); 80.3% in assay [4] (500 nM); 72.7% in assay [5] (500 nM); 101% in assay [6] (500 nM). Further, the remaining activity at 0.5 µM came out at 88.7% in assay [7] (500 nM); 109% in [8] (500 nM); 71.2% in [9] (500 nM); 87.3% in [10] (500 nM); 94.7% in assay [11] (500 nM); 204% in [12] (500 nM).
